Key:
[1] = tested on: primary polyclonal rabbit anti-OXT IgG (Cayman Chemical Company OXT EIA, secondary monoclonal mouse anti-rabbit IgG); experiment: OXT EIA cross-reactivity, Cayman Chemical Company kit; type: binding
[2] = tested on: primary polyclonal rabbit anti-OXT IgG (Enzo Life Sciences OXT EIA, secondary polyclonal goat anti-rabbit IgG); conditions: competitive EIA; published IC50; ref manufacturer (Enzo Life Sciences); cited from earlier work
[3] = Reversed phase SPE of OXT from pure solution; type: physicochemical; conditions: 200 pg/ml pure OXT solution, 0.1% TFA-H2O, separate C-18 column elutions, Enzo Life Sciences EIA
[4] = same ultrafiltration columns, cited from earlier work
[5] = tested on: primary polyclonal rabbit anti-OXT IgG (Cayman Chemical Company OXT EIA, secondary monoclonal mouse anti-rabbit IgG); conditions: competitive EIA; ref manufacturer (Cayman Chemical Company); cited from earlier work

Q: With Immunoglobulin G as the substance, how does the “cross-reactivity (IC50(OXT)/IC50(interfering protein))” value (“cross-reactivity” below) [1] read?
A: < 0.01%

Q: For Immunoglobulin M, which “cross-reactivity” value [1] is on record?
A: < 0.01%

Q: With Transferrin as the substance, how does the “cross-reactivity” value [1] read?
A: < 0.01%

Q: What does the source list for oxytocin [OXT]?
A: IC50 of the Enzo Life Sciences OXT assay [2]: 0.228 ng/mL; OXT recovered in the eluate, reversed phase SPE ([3]; 30–40% ACN range, CV for three columns 30.8–136.5%): 10.1–49.1%; total amount of OXT measured in all fractions (load, wash, eluate) as % of the original sample [3]: 37.1–92.2%; OXT recovery rate from plasma, ultrafiltration ([4]; plasma): 91.8%; OXT recovery rate from saliva, ultrafiltration ([4]; saliva): 68.4%; mean IC50 of the Cayman Chemical Company OXT assay [5]: 0.08 ng/mL
